Test results reported in US8183234B2, “Tricyclic guanidine derivatives as sodium-proton exchange inhibitors” (Piramal Life Sciences Limited, priority 2004, dated 2012).

SMILES | melting point [°C]
CS(=O)(=O)O.CS(=O)(=O)O.CS(=O)(=O)O.Cc1cc(C(=O)NC(=N)N)cc2c1Oc1c(Cl)cc(N3CCN(Cc4cccc(N)c4)CC3)cc1CS2(=O)=O [Example 127, N-{2-[4-(3-Amino-benzyl)-piperazin-1-yl]-4-chloro-6-methyl-10,10-dioxo-10,11-dihydro-5-oxa-10lambda*6*-thia-dibenzo[a,d]cycloheptene-8-carbonyl}-guanidine trimesylate] | 214 to 215
CS(=O)(=O)O.CS(=O)(=O)O.CS(=O)(=O)O.Cc1cc(C(=O)NC(=N)N)cc2c1Oc1c(Cl)cc(N3CCN(Cc4cccnc4)CC3)cc1CS2(=O)=O [Example 128, N-[4-Chloro-6-methyl-10,10-dioxo-2-(4-pyridin-3-ylmethyl-piperazin-1-yl)-10,11-dihydro-5-oxa-10lambda*6*-thia-dibenzo[a,d]cycloheptene-8-carbonyl]-guanidine trimesylate] | 190 to 192
CS(=O)(=O)O.CS(=O)(=O)O.Cc1cc(C(=O)NC(=N)N)cc2c1Oc1c(Cl)cc(N3CCN(C4CCC4)CC3)cc1CS2(=O)=O [Example 129, N-[4-Chloro-2-(4-cyclobutyl-piperazin-1-yl)-6-methyl-10,10-dioxo-10,11-dihydro-5-oxa-10lambda*6*-thia-dibenzo[a,d]cycloheptene-8-carbonyl]-guanidine dimesylate] | 275 to 277
CS(=O)(=O)O.CS(=O)(=O)O.Cc1cc(C(=O)NC(=N)N)cc2c1Oc1c(Cl)cc(NC(=O)CN3CCCCC3)cc1CS2(=O)=O [Example 134, N-(4-Chloro-8-guanidinocarbonyl-6-methyl-10,10-dioxo-10,11-dihydro-5-oxa-10lambda*6*-thia-dibenzo[a,d]cycloheptene-2-yl)-2-piperidin-1-yl-acetamide dimesylate] | 178 to 180
CS(=O)(=O)O.Cc1cc(C(=O)NC(=N)N)cc2c1Oc1c(Cl)cc(NC(=O)CO)cc1CS2(=O)=O [Example 136, N-(4-Chloro-8-guanidinocarbonyl-6-methyl-10,10-dioxo-10,11-dihydro-5-oxa-10lambda*6*-thia-dibenzo[a,d]cycloheptene-2-yl)-2-hydroxy-acetamide methane sulfonic acid salt] | 180 to 182
CS(=O)(=O)O.CS(=O)(=O)O.Cc1cc(C(=O)NC(=N)N)cc2c1Oc1c(Cl)cc(NC(=O)Cn3ccnc3)cc1CS2(=O)=O [Example 137, N-(4-Chloro-8-guanidinocarbonyl-6-methyl-10,10-dioxo-10,11-dihydro-5-oxa-10lambda*6*-thia-dibenzo[a,d]cyclohepten-2-yl)-2-imidazol-1-yl-acetamide dimesylate] | 252 to 254
CS(=O)(=O)O.CS(=O)(=O)O.Cc1cc(C(=O)NC(=N)N)cc2c1Oc1c(Cl)cc(NC(=O)CNC3CC3)cc1CS2(=O)=O [Example 138, N-(4-Chloro-8-guanidinocarbonyl-6-methyl-10,10-dioxo-10,11-dihydro-5-oxa-10lambda*6*-thia-dibenzo[a,d]cyclohepten-2-yl)-2-cyclopropylamino-acetamide dimesylate] | 188 to 190
CS(=O)(=O)O.CS(=O)(=O)O.Cc1cc(C(=O)NC(=N)N)cc2c1Oc1c(Cl)cc(NC(=O)CNC3CCCCC3)cc1CS2(=O)=O [Example 139, N-(4-Chloro-8-guanidinocarbonyl-6-methyl-10,10-dioxo-10,11-dihydro-5-oxa-10lambda*6*-thia-dibenzo[a,d]cyclohepten-2-yl)-2-cyclohexylamino-acetamide dimesylate] | 194 to 196
CS(=O)(=O)O.CS(=O)(=O)O.Cc1cc(C(=O)NC(=N)N)cc2c1Oc1c(Cl)cc(NC(=O)CNC3CCCC3)cc1CS2(=O)=O [Example 140, N-(4-Chloro-8-guanidinocarbonyl-6-methyl-10,10-dioxo-10,11-dihydro-5-oxa-10lambda*6*-thia-dibenzo[a,d]cyclohepten-2-yl)-2-cyclopentylamino-acetamide dimesylate] | 190 to 192
CS(=O)(=O)O.CS(=O)(=O)O.Cc1cc(C(=O)NC(=N)N)cc2c1Oc1c(Cl)cc(NC(=O)CNC(C)C)cc1CS2(=O)=O [Example 141, N-(4-Chloro-8-guanidinocarbonyl-6-methyl-10,10-dioxo-10,11-dihydro-5-oxa-10lambda*6*-thia-dibenzo[a,d]cyclohepten-2-yl)-2-isopropylamino-acetamide dimesylate] | 192 to 194
CS(=O)(=O)O.CS(=O)(=O)O.Cc1cc(C(=O)NC(=N)N)cc2c1Oc1c(Cl)cc(NC(=O)CN(C)C)cc1CS2(=O)=O [Example 142, N-(4-Chloro-8-guanidinocarbonyl-6-methyl-10,10-dioxo-10,11-dihydro-5-oxa-10lambda*6*-thia-dibenzo[a,d]cyclohepten-2-yl)-2-dimethylamino-acetamide dimesylate] | 190 to 191
CS(=O)(=O)O.CS(=O)(=O)O.Cc1cc(C(=O)NC(=N)N)cc2c1Oc1c(Cl)cc(NC(=O)CNC3CCC3)cc1CS2(=O)=O [Example 143, N-(4-Chloro-8-guanidinocarbonyl-6-methyl-10,10-dioxo-10,11-dihydro-5-oxa-10lambda*6*-thia-dibenzo[a,d]cycloheptene-2-yl)-2-cyclobutylamino-acetamide dimesylate] | 190 to 192
CS(=O)(=O)O.CS(=O)(=O)O.Cc1cc(C(=O)NC(=N)N)cc2c1Oc1c(Cl)cc(NC(=O)CN3CCN(c4cccc(C(F)(F)F)c4)CC3)cc1CS2(=O)=O [Example 145, N-(4-Chloro-8-guanidinocarbonyl-6-methyl-10,10-dioxo-10,11-dihydro-5-oxa-10lambda*6*-thia-dibenzo[a,d]cyclohepten-2-yl)-2-[4-(3-trifluoromethyl-phenyl)-piperazin-1-yl]-acetamide dimesylate] | 222
CNCC(=O)Nc1cc(Cl)c2c(c1)CS(=O)(=O)c1cc(C(=O)NC(=N)N)cc(C)c1O2.CS(=O)(=O)O.CS(=O)(=O)O [Example 146, N-(4-Chloro-8-guanidinocarbonyl-6-methyl-10,10-dioxo-10,11-dihydro-5-oxa-10lambda*6*-thia-dibenzo[a,d]cyclohepten-2-yl)-2-methylamino-acetamide dimesylate] | 188 to 190
CS(=O)(=O)O.CS(=O)(=O)O.Cc1cc(C(=O)NC(=N)N)cc2c1Oc1c(Cl)cc(NC(=O)CN3CCCC3)cc1CS2(=O)=O [Example 147, N-(4-Chloro-8-guanidinocarbonyl-6-methyl-10,10-dioxo-10,11-dihydro-5-oxa-10lambda*6*-thia-dibenzo[a,d]-cyclohepten-2-yl)-2-pyrrolidine-1-yl-acetamide dimesylate] | 190 to 192
CS(=O)(=O)O.CS(=O)(=O)O.CS(=O)(=O)O.Cc1cc(C(=O)NC(=N)N)cc2c1Oc1c(Cl)cc(N(CCN3CCCC3)C(=O)CNC3CC3)cc1CS2(=O)=O [Example 150, N-(4-Chloro-8-guanidinocarbonyl-6-methyl-10,10-dioxo-10,11-dihydro-5-oxa-10-lambda*6*-thia-dibenzo[a,d]cycloheptene-2-yl)-2-cyclopropylamino-N-(2-pyrrolidin-1-yl-ethyl)-acetamide trimesylate] | 150 to 152
